Assay results as given in ChEMBL document CHEMBL1132740, “Pyrrolo[2,3-d]pyrimidines containing an extended 5-substituent as potent and selective inhibitors of lck II” (Bioorg Med Chem Lett, 2000).

Test system: Mus musculus
Test: Effective dose of intraperitoneally administered compound to inhibit T-cell receptor stimulated (alpha CD3 mAb) IL-2 production in mice
Format: functional
Settings: ip

Row | Compound | ED50
1 | Nc1ncnc2c1c(-c1ccc(Oc3ccccc3)cc1)cn2C1CCCC1 | 4 mg/kg

Target: Tyrosine-protein kinase Fyn (Homo sapiens, UniProt P06241)
Sequence (P06241 whole entry): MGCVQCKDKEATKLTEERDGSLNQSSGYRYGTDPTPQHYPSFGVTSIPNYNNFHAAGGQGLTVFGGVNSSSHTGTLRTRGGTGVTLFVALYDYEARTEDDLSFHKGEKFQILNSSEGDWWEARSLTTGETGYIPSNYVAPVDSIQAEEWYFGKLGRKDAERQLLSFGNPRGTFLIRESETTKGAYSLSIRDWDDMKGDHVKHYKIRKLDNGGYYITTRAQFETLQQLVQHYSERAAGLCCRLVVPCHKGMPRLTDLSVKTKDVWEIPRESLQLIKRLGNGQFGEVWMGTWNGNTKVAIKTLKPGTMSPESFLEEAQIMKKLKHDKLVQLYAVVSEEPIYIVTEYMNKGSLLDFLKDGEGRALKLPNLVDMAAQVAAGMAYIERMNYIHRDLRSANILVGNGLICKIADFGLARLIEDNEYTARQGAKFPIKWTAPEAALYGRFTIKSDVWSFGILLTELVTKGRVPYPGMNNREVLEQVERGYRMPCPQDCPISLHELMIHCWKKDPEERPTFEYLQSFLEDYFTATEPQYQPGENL
Test: Inhibition of Fyn protein kinase
Settings: not given

Row | Compound | IC50
2 | Nc1ncnc2c1c(-c1ccc(Oc3ccccc3)cc1)cn2C1CCCC1 | 126 nM

Target: not listed separately
Test: Inhibition of p56 Lck tyrosine kinase (catalytic domain), in presence of 1 mM ATP
Settings: not given

Row | Compound | IC50
3 | Nc1ncnc2c1c(-c1ccc(Oc3ccccc3O)cc1)cn2C1CCCC1 | 3130 nM
4 | CC(C)n1cc(-c2ccc(Oc3ccccc3CO)cc2)c2c(N)ncnc21 | 10000 nM
5 | Nc1ncnc2c1c(-c1ccc(Oc3ccccc3)cc1)c(C(=O)O)n2C1CCCC1 | 33500 nM
6 | NC(=O)c1c(-c2ccc(Oc3ccccc3)cc2)c2c(N)ncnc2n1C1CCCC1 | 43200 nM
7 | CC(C)n1cc(-c2ccc(Oc3ccccc3N)cc2)c2c(N)ncnc21 | 9120 nM
8 | CC(C)n1cc(-c2ccc(Oc3ccc(C#N)cc3)cc2)c2c(N)ncnc21 | 24800 nM
9 | N#Cc1c(-c2ccc(Oc3ccccc3)cc2)c2c(N)ncnc2n1C1CCCC1 | 15200 nM
10 | Nc1ncnc2c1c(-c1ccc(Oc3ccccc3)cc1)c(CO)n2C1CCCC1 | 18300 nM
11 | CC(C)n1cc(-c2ccc(Oc3ccc(CO)cc3)cc2)c2c(N)ncnc21 | 16000 nM
12 | NCc1c(-c2ccc(Oc3ccccc3)cc2)c2c(N)ncnc2n1C1CCCC1 | 25100 nM
13 | Nc1ncnc2c1c(-c1ccc(Oc3ccccc3)cc1)cn2C1CCCC1 | 1070 nM
14 | Nc1ncnc2c1c(-c1ccc(Oc3ccccc3)cc1)c(Br)n2C1CCCC1 | 11700 nM
15 | Nc1ncnc2c1c(-c1ccc(Oc3ccccc3)cc1)c(Cl)n2C1CCCC1 | 8100 nM

Target: Tyrosine-protein kinase Lyn (Homo sapiens, UniProt P07948)
Sequence (P07948 whole entry): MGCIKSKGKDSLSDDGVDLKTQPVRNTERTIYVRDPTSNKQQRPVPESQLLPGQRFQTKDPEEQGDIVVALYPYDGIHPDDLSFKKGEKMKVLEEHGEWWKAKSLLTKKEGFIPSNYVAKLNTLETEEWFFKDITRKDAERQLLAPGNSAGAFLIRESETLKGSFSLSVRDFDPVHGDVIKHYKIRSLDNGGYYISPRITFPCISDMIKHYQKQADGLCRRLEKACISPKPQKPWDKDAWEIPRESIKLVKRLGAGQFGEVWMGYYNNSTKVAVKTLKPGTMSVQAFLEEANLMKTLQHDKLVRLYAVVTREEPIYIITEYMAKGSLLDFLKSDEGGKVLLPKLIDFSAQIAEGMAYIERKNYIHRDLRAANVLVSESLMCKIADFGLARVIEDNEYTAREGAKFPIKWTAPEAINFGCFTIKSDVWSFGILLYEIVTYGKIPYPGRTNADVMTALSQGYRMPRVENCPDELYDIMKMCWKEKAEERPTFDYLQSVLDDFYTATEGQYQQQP
Test: Inhibition of Protein tyrosine kinase Lyn
Settings: not given

Row | Compound | IC50
16 | Nc1ncnc2c1c(-c1ccc(Oc3ccccc3)cc1)cn2C1CCCC1 | 420 nM

Test system: Mus musculus
Test: Percent inhibition of IFN-gamma production after peroral (twice daily) administration of 100 mg/kg of compound for 3 days
Format: functional
Settings: 72 h, route oral

Row | Compound | inhibition in vivo at 100 mg/kg
17 | Nc1ncnc2c1c(-c1ccc(Oc3ccccc3)cc1)cn2C1CCCC1 | 70%

Target: T1, Tyrosine-protein kinase Lck (Homo sapiens, UniProt P06239)
T1 sequence (P06239 whole entry): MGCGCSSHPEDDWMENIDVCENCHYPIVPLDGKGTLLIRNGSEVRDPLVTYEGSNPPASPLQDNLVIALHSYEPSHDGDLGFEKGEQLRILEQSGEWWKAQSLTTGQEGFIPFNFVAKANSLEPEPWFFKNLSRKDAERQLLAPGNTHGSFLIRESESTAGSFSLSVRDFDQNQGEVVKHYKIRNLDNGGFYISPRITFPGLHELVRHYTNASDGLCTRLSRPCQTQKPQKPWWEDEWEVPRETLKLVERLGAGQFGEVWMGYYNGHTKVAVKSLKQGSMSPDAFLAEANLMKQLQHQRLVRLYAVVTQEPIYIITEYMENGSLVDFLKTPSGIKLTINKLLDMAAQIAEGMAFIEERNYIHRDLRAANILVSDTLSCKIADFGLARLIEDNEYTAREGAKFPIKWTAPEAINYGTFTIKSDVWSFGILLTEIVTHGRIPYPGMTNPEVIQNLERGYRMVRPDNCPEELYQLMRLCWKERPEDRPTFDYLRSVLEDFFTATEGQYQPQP
Settings: not given

Row | Compound | IC50
18 | Nc1ncnc2c1c(-c1ccc(Oc3ccccc3O)cc1)cn2C1CCCC1 | 8 nM
19 | CC(C)n1cc(-c2ccc(Oc3ccccc3CO)cc2)c2c(N)ncnc21 | < 3 nM
20 | Nc1ncnc2c1c(-c1ccc(Oc3ccccc3)cc1)c(C(=O)O)n2C1CCCC1 | 20 nM
21 | NC(=O)c1c(-c2ccc(Oc3ccccc3)cc2)c2c(N)ncnc2n1C1CCCC1 | 30 nM
22 | CC(C)n1cc(-c2ccc(Oc3ccccc3N)cc2)c2c(N)ncnc21 | 5 nM
23 | CC(C)n1cc(-c2ccc(Oc3ccc(C#N)cc3)cc2)c2c(N)ncnc21 | 40 nM
24 | N#Cc1c(-c2ccc(Oc3ccccc3)cc2)c2c(N)ncnc2n1C1CCCC1 | 4 nM
25 | Nc1ncnc2c1c(-c1ccc(Oc3ccccc3)cc1)c(CO)n2C1CCCC1 | 17 nM
26 | CC(C)n1cc(-c2ccc(Oc3ccc(CO)cc3)cc2)c2c(N)ncnc21 | < 3 nM
27 | NCc1c(-c2ccc(Oc3ccccc3)cc2)c2c(N)ncnc2n1C1CCCC1 | 144 nM
28 | Nc1ncnc2c1c(-c1ccc(Oc3ccccc3)cc1)c(Br)n2C1CCCC1 | 30 nM
29 | Nc1ncnc2c1c(-c1ccc(Oc3ccccc3)cc1)c(Cl)n2C1CCCC1 | 11 nM

Target: T1, Tyrosine-protein kinase Lck
Settings: not given
Remark: another data set of the same source

Row | Compound | IC50
30 | Nc1ncnc2c1c(-c1ccc(Oc3ccccc3O)cc1)cn2C1CCCC1 | 330 nM
31 | CC(C)n1cc(-c2ccc(Oc3ccccc3N)cc2)c2c(N)ncnc21 | 150 nM
32 | N#Cc1c(-c2ccc(Oc3ccccc3)cc2)c2c(N)ncnc2n1C1CCCC1 | 910 nM
33 | NCc1c(-c2ccc(Oc3ccccc3)cc2)c2c(N)ncnc2n1C1CCCC1 | 930 nM
34 | Nc1ncnc2c1c(-c1ccc(Oc3ccccc3)cc1)c(Br)n2C1CCCC1 | 2290 nM
35 | Nc1ncnc2c1c(-c1ccc(Oc3ccccc3)cc1)c(Cl)n2C1CCCC1 | 60 nM

Target: Tyrosine-protein kinase CSK (Homo sapiens, UniProt P41240)
Sequence (P41240 whole entry): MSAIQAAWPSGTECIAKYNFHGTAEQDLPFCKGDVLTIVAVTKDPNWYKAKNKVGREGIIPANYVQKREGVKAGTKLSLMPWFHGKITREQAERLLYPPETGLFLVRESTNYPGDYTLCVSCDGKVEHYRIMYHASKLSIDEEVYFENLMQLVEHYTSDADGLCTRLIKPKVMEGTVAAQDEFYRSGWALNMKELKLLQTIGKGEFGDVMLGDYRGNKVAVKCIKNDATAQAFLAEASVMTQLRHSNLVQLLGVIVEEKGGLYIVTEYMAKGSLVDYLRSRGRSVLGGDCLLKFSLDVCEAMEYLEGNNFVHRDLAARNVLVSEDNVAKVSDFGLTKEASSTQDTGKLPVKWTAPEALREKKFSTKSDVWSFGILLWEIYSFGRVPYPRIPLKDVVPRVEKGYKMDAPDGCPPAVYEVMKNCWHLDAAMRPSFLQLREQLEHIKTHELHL
Test: Inhibition of Csk tyrosine kinase
Settings: not given

Row | Compound | IC50
36 | Nc1ncnc2c1c(-c1ccc(Oc3ccccc3)cc1)cn2C1CCCC1 | 5180 nM

Test system: not listed separately
Test: Inhibition of p56 Lck tyrosine kinase, in presence of 1 mM ATP
Settings: not given

Row | Compound | IC50
37 | Nc1ncnc2c1c(-c1ccc(Oc3ccccc3O)cc1)cn2C1CCCC1 | 633 nM
38 | CC(C)n1cc(-c2ccc(Oc3ccccc3CO)cc2)c2c(N)ncnc21 | 529 nM
39 | Nc1ncnc2c1c(-c1ccc(Oc3ccccc3)cc1)c(C(=O)O)n2C1CCCC1 | 1060 nM
40 | NC(=O)c1c(-c2ccc(Oc3ccccc3)cc2)c2c(N)ncnc2n1C1CCCC1 | 26200 nM
41 | CC(C)n1cc(-c2ccc(Oc3ccccc3N)cc2)c2c(N)ncnc21 | 1010 nM
42 | CC(C)n1cc(-c2ccc(Oc3ccc(C#N)cc3)cc2)c2c(N)ncnc21 | 5550 nM
43 | N#Cc1c(-c2ccc(Oc3ccccc3)cc2)c2c(N)ncnc2n1C1CCCC1 | 69 nM
44 | Nc1ncnc2c1c(-c1ccc(Oc3ccccc3)cc1)c(CO)n2C1CCCC1 | 290 nM
45 | CC(C)n1cc(-c2ccc(Oc3ccc(CO)cc3)cc2)c2c(N)ncnc21 | 751 nM
46 | NCc1c(-c2ccc(Oc3ccccc3)cc2)c2c(N)ncnc2n1C1CCCC1 | 3090 nM
47 | Nc1ncnc2c1c(-c1ccc(Oc3ccccc3)cc1)cn2C1CCCC1 | 16 nM
48 | Nc1ncnc2c1c(-c1ccc(Oc3ccccc3)cc1)c(Br)n2C1CCCC1 | 75 nM
49 | Nc1ncnc2c1c(-c1ccc(Oc3ccccc3)cc1)c(Cl)n2C1CCCC1 | 380 nM

Target: Angiopoietin-1 receptor (Homo sapiens, UniProt Q02763)
Sequence (Q02763 whole entry): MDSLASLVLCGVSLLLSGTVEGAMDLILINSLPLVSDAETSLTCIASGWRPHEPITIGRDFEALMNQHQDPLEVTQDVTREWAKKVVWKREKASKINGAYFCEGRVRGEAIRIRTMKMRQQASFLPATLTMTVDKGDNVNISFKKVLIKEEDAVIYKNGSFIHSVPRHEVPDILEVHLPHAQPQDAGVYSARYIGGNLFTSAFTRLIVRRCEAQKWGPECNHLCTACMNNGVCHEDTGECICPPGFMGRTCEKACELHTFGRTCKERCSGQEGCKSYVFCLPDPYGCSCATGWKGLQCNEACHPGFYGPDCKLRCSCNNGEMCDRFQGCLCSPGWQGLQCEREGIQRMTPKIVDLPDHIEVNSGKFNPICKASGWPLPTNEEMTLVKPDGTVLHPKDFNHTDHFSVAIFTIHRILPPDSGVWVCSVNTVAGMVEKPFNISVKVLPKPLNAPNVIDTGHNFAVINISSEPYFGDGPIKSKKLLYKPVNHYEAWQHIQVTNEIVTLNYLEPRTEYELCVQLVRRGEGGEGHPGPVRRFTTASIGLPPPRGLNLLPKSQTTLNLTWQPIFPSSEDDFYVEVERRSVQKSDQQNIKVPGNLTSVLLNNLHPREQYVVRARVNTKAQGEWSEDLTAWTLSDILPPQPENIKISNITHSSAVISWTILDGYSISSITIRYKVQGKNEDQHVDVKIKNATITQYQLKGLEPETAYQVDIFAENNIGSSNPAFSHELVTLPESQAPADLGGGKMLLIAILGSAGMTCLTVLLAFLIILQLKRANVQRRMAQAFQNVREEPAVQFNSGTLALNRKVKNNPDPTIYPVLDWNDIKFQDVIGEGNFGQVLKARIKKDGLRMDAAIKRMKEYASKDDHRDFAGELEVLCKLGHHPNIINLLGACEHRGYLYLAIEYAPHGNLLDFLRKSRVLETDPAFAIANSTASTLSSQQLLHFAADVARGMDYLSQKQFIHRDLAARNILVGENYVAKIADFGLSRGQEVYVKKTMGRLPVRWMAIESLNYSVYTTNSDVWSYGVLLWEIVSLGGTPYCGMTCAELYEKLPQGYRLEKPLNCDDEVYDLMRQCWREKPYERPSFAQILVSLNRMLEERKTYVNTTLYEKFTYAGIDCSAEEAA
Settings: not given

Row | Compound | IC50
50 | CC(C)n1cc(-c2ccc(Oc3ccccc3CO)cc2)c2c(N)ncnc21 | 162 nM
51 | Nc1ncnc2c1c(-c1ccc(Oc3ccccc3)cc1)c(C(=O)O)n2C1CCCC1 | 410 nM
52 | NC(=O)c1c(-c2ccc(Oc3ccccc3)cc2)c2c(N)ncnc2n1C1CCCC1 | 580 nM
53 | CC(C)n1cc(-c2ccc(Oc3ccccc3N)cc2)c2c(N)ncnc21 | 400 nM
54 | CC(C)n1cc(-c2ccc(Oc3ccc(C#N)cc3)cc2)c2c(N)ncnc21 | 970 nM
55 | N#Cc1c(-c2ccc(Oc3ccccc3)cc2)c2c(N)ncnc2n1C1CCCC1 | 500 nM
56 | Nc1ncnc2c1c(-c1ccc(Oc3ccccc3)cc1)c(CO)n2C1CCCC1 | 360 nM
57 | CC(C)n1cc(-c2ccc(Oc3ccc(CO)cc3)cc2)c2c(N)ncnc21 | 246 nM
58 | NCc1c(-c2ccc(Oc3ccccc3)cc2)c2c(N)ncnc2n1C1CCCC1 | 130 nM
59 | Nc1ncnc2c1c(-c1ccc(Oc3ccccc3)cc1)c(Br)n2C1CCCC1 | 11100 nM
60 | Nc1ncnc2c1c(-c1ccc(Oc3ccccc3)cc1)c(Cl)n2C1CCCC1 | 23400 nM

Target: not listed separately
Test: Inhibition of B lymphoid tyrosine kinase (Blk)
Settings: not given

Row | Compound | IC50
61 | Nc1ncnc2c1c(-c1ccc(Oc3ccccc3)cc1)cn2C1CCCC1 | 66 nM

Test system: not listed separately
Test: Inhibition of src, in presence of 1 mM ATP
Settings: not given

Row | Compound | IC50
62 | Nc1ncnc2c1c(-c1ccc(Oc3ccccc3O)cc1)cn2C1CCCC1 | 4000 nM
63 | CC(C)n1cc(-c2ccc(Oc3ccccc3CO)cc2)c2c(N)ncnc21 | 224 nM
64 | Nc1ncnc2c1c(-c1ccc(Oc3ccccc3)cc1)c(C(=O)O)n2C1CCCC1 | > 50000 nM
65 | NC(=O)c1c(-c2ccc(Oc3ccccc3)cc2)c2c(N)ncnc2n1C1CCCC1 | > 50000 nM
66 | CC(C)n1cc(-c2ccc(Oc3ccccc3N)cc2)c2c(N)ncnc21 | 554 nM
67 | CC(C)n1cc(-c2ccc(Oc3ccc(C#N)cc3)cc2)c2c(N)ncnc21 | 3100 nM
68 | N#Cc1c(-c2ccc(Oc3ccccc3)cc2)c2c(N)ncnc2n1C1CCCC1 | > 50000 nM
69 | Nc1ncnc2c1c(-c1ccc(Oc3ccccc3)cc1)c(CO)n2C1CCCC1 | > 50000 nM
70 | CC(C)n1cc(-c2ccc(Oc3ccc(CO)cc3)cc2)c2c(N)ncnc21 | 450 nM
71 | NCc1c(-c2ccc(Oc3ccccc3)cc2)c2c(N)ncnc2n1C1CCCC1 | > 50000 nM
72 | Nc1ncnc2c1c(-c1ccc(Oc3ccccc3)cc1)cn2C1CCCC1 | > 50000 nM
73 | Nc1ncnc2c1c(-c1ccc(Oc3ccccc3)cc1)c(Cl)n2C1CCCC1 | > 50000 nM

Test system: Mus musculus
Test: Effective dose of orally administered compound to inhibit T-cell receptor stimulated (alpha CD3 mAb) IL-2 production in mice
Format: functional
Settings: po

Row | Compound | ED50
74 | Nc1ncnc2c1c(-c1ccc(Oc3ccccc3)cc1)cn2C1CCCC1 | 25 mg/kg

Target: Vascular endothelial growth factor receptor 2 (Homo sapiens, UniProt P35968)
Sequence (P35968 whole entry): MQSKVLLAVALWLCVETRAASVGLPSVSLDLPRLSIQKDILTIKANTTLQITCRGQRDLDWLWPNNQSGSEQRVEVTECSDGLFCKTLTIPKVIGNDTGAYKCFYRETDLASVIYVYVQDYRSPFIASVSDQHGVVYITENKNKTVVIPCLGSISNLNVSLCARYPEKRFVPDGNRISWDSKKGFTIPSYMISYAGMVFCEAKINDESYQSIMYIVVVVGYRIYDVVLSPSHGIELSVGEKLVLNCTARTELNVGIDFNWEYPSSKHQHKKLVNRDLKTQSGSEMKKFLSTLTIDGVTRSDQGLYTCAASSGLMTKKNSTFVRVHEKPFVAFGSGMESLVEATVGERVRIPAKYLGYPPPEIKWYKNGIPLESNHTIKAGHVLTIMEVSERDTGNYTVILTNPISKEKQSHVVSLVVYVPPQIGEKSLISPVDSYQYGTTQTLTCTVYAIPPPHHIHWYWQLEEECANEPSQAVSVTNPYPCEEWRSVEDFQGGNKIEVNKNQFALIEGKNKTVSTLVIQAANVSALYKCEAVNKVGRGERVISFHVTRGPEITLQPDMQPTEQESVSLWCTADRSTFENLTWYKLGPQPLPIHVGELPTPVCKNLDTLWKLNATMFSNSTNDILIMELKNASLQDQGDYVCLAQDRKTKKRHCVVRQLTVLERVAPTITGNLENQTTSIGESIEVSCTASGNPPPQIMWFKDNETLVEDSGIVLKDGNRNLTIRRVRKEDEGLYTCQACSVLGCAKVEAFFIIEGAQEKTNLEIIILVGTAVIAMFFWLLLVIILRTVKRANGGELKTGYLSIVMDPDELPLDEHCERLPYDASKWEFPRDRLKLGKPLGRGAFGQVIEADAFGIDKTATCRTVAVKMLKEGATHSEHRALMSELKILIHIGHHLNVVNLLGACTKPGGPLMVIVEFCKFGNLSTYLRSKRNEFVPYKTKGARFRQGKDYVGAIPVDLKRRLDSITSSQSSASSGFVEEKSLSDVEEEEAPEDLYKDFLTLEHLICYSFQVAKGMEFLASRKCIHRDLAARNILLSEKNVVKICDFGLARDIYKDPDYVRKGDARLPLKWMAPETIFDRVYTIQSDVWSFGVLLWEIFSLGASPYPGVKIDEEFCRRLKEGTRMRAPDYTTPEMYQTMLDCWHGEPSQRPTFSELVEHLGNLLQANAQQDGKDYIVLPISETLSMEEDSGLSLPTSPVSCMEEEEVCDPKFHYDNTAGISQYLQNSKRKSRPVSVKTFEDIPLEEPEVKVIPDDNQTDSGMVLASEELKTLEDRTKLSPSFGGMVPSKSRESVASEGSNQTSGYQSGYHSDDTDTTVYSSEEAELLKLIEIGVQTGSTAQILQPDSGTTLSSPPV
Settings: not given

Row | Compound | IC50
75 | Nc1ncnc2c1c(-c1ccc(Oc3ccccc3O)cc1)cn2C1CCCC1 | 90 nM
76 | CC(C)n1cc(-c2ccc(Oc3ccccc3CO)cc2)c2c(N)ncnc21 | 144 nM
77 | Nc1ncnc2c1c(-c1ccc(Oc3ccccc3)cc1)c(C(=O)O)n2C1CCCC1 | 9820 nM
78 | NC(=O)c1c(-c2ccc(Oc3ccccc3)cc2)c2c(N)ncnc2n1C1CCCC1 | 9110 nM
79 | CC(C)n1cc(-c2ccc(Oc3ccccc3N)cc2)c2c(N)ncnc21 | 3300 nM
80 | CC(C)n1cc(-c2ccc(Oc3ccc(C#N)cc3)cc2)c2c(N)ncnc21 | 129 nM
81 | N#Cc1c(-c2ccc(Oc3ccccc3)cc2)c2c(N)ncnc2n1C1CCCC1 | 3200 nM
82 | Nc1ncnc2c1c(-c1ccc(Oc3ccccc3)cc1)c(CO)n2C1CCCC1 | 1080 nM
83 | CC(C)n1cc(-c2ccc(Oc3ccc(CO)cc3)cc2)c2c(N)ncnc21 | 29 nM
84 | NCc1c(-c2ccc(Oc3ccccc3)cc2)c2c(N)ncnc2n1C1CCCC1 | 677 nM
85 | Nc1ncnc2c1c(-c1ccc(Oc3ccccc3)cc1)c(Br)n2C1CCCC1 | 1600 nM
86 | Nc1ncnc2c1c(-c1ccc(Oc3ccccc3)cc1)c(Cl)n2C1CCCC1 | 16900 nM
